The structures appear in SMILES notation.

The target in the experiment is T1, vanilloid receptor (Rattus norvegicus, UniProt O35433).
T1 construct: DRG nerve cells from the primary culture of 2 days were equilibrated; endogenous in cells; host or cells: primary culture of dorsal root ganglion neurons from neonatal SD rats
T1 sequence (O35433 whole entry): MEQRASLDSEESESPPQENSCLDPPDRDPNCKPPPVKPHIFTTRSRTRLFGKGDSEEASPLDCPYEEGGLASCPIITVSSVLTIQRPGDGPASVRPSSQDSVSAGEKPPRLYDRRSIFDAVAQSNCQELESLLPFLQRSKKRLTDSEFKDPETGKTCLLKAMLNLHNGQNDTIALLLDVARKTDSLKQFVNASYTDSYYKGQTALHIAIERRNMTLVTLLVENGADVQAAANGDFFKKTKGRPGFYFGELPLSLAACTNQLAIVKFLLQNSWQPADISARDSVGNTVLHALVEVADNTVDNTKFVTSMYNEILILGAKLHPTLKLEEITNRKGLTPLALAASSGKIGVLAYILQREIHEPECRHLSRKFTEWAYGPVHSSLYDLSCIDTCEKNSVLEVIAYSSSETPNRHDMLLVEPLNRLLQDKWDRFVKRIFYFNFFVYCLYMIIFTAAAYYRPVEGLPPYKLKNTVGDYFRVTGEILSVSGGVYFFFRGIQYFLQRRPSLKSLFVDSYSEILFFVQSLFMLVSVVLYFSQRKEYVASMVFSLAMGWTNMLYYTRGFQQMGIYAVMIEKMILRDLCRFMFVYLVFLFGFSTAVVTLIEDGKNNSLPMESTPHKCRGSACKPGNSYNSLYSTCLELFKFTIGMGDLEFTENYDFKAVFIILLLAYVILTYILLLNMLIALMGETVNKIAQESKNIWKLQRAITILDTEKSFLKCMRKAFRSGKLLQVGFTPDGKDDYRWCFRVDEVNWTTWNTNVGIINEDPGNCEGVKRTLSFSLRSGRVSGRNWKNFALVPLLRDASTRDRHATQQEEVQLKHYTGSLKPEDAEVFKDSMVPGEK
Nature of the experiment: 45Ca influx test (antagonist calcium uptake test) in rat DRG neurons stimulated with capsaicin. The note with it: neonatal SD rat DRG neurons; capsaicin 0.5 μM; 45Ca. Type of experiment: cell-based. On the procedure:
1) Separation of spinal dorsal root ganglia (DRG) in newborn rats and primary culture thereof
Neonatal (2-3 clay old or younger than 2-3 day old) SD rats were put in ice for 5 minutes to anesthetize and disinfected with 70% ethanol. DRG of all part of spinal cord were dissected (Wood et al., 1988, J. Neurosci. 8, pp 3208-3220) and collected in DME/F12 medium to which 1.2 g/l sodium bicarbonate and 50 mg/l gentamycin were added. The DRG were incubated sequentially at 37° C. for 30 mins in 200 U/ml collagenase and 2.5 mg/ml trypsin, separately. The ganglia were washed twice with DME/F12 medium supplemented with 10% horse serum, triturated through a fire-polished Pasteur pipette, filtered through Nitex 80 membrane to obtain single cell suspension and the suspension was washed once more. This was subjected to centrifugation, then resuspended in cell culture medium at certain level of cell density. As the cell culture medium, DME/F12 medium supplemented with 10% horse serum was diluted with identical medium conditioned by C6 glioma cells 2 clays on a confluent monolayer (1:1), and NGF (Nerve Growth Factor) was added to adjust 200 ng/ml as final concentration. After the cells were grown 2 days in medium where cytosine arabinoside (Ara-C, 100 μM) was added to kill dividing nonneuronal cells, medium was changed to one without Ara-C. The resuspended cells were plated at a density of 1500-2000 neurons/well onto Terasaki plates previously coated with 10 μg/ml poly-D-ornithine.
2) ^45Ca Influx Experiments
DRG nerve cells from the primary culture of 2 days were equilibrated by washing 4 times with HEPES (10 mM, pH 7.4)-buffered Ca^2+, Mg^2+-free HBSS (H-HBSS). The solution in each well was removed from the individual well. Medium containing the test compound plus capsaicin (final concentration 0.5 μM) and ^45Ca (final concentration 10 μCi/ml) in H-HBSS was added to each well and incubated at room temperature for 10 nuns. Terasaki plates were washed five times with H-HBSS and dried at room temperature. To each well, 0.3% SDS (10 μl) was added to elute ^45Ca. After the addition of scintillation cocktail of into each well, the amount of ^45Ca influx into neuron was measured by counting radioactivity. Antagonistic activities of test compounds against vanilloid receptor were calculated as percent of the inhibition of maximal response of capsaicin at a concentration of 0.5 μM.
With `C[C@@H](NC(=O)c1coc(-c2cc(Br)cc(C3CC3)c2)n1)c1cc(F)c(NS(C)(=O)=O)c(F)c1` [Example 115, 2-(3-Bromo-5-cyclopropyl-phenyl)-oxazole-4-carboxylic acid [1-(3,5-difluoro-4-methanesulfonylamino-phenyl)-ethyl]-amide], the 50% inhibitory concentration (IC50) amounted to 770 nM.
For `CS(=O)(=O)Nc1ccc(CNC(=O)c2cnc(-c3ccc(C(F)(F)F)cc3)s2)cc1F` [Example 122, 2-(4-Trifluoromethyl-phenyl)-thiazole-5-carboxylic acid 3-fluoro-4-methanesulfonylamino-benzylamide] the value was 8800 nM; for `CCCCOc1ccccc1-c1nc(C(=O)N[C@H](C)c2cc(F)c(NS(C)(=O)=O)c(F)c2)co1` [Example 66, 2-(2-Butoxy-phenyl)-oxazole-4-carboxylic acid [1-(3,5-difluoro-4-methanesulfonylamino-phenyl)-ethyl]-amide], 750 nM.
For `C=C1CCCc2c(Oc3nc(C(=O)N[C@H](C)c4cc(F)c(NS(C)(=O)=O)c(F)c4)co3)cccc21` [Example 37, 2-(5-Methylene-5,6,7,8-tetrahydro-naphthalen-1-yloxy)-oxazole-4-carboxylic acid [1-(3,5-difluoro-4-methanesulfonylamino-phenyl)-ethyl]-amide] the value was 410 nM.
For `C[C@@H](NC(=O)c1csc(Cc2ccc(F)c(F)c2)n1)c1cc(F)c(NS(C)(=O)=O)c(F)c1` [Example 11, (R)—N-[1-(3,5-Difluoro-4-methanesulfonylamino-phenyl)-ethyl]-2-(3,4-difluorobenzyl)-thiazole-4-amide] the value was over 10000 nM.
Turning to `CCOc1cccc(-c2ccc(C(=O)NCc3cc(F)c(NS(C)(=O)=O)c(F)c3)s2)c1` [Example 64, 5-(3-Ethoxy-phenyl)-thiophene-2-carboxylic acid 3,5-difluoro-4-methanesulfonylamino-benzylamide], the concentration for half-maximal inhibition (IC50) was 4100 nM.
With `CS(=O)(=O)Nc1c(F)cc(CNC(=O)c2ccc(-c3cccc(C(F)(F)F)c3)o2)cc1C(F)(F)F` [Example 113, 5-(3-Trifluoromethyl-phenyl)-furan-2-carboxylic acid 4-methanesulfonylamino-3-fluoro-5-trifluomethyl-benzylamide] the figure was 1400 nM; with `C[C@@H](NC(=O)c1coc(-c2ccccc2Cl)n1)c1cc(F)c(NS(C)(=O)=O)c(F)c1` (stereo in doubt) [Example 84, 2-(2-Chloro-phenyl)-oxazole-4-carboxylic acid [1-(3,5-difluoro-4-methanesulfonylamino-phenyl)-ethyl]-amide], 7400 nM; with `CC(C)Oc1cccc(Oc2nc(C(=O)N[C@H](C)c3cc(F)c(NS(C)(=O)=O)c(F)c3)co2)c1` [Example 48, 2-(3-Isopropoxy-phenoxy)-oxazole-4-carboxylic acid [1-(3,5-difluoro-4-methanesulfonylamino-phenyl)-ethyl]-amide], 1200 nM.
`CS(=O)(=O)Nc1ccc(CNC(=O)c2ccc(-c3ccc(F)c(C(F)(F)F)c3)o2)cc1F` [Example 125, 5-(4-Fluoro-3-trifluoromethyl-phenyl)-furan-2-carboxylic acid 3-fluoro-4-methanesulfonylamino-benzylamide]: the IC50 stood at 530 nM.
For `C[C@@H](NC(=O)c1coc(Oc2cccc3cccnc23)n1)c1cc(F)c(NS(C)(=O)=O)c(F)c1` [Example 24, 2-(Quinolin-8-yloxy)-oxazole-4-carboxylic acid [1-(3,5-difluoro-4-methanesulfonylamino-phenyl)-ethyl]-amide] the value was over 10000 nM.
Take `C[C@@H](NC(=O)c1coc(Oc2ccc(C(F)(F)F)cc2)n1)c1cc(F)c(NS(C)(=O)=O)c(F)c1` [Example 6, 2-(4-Trifluoromethyl-phenoxy)-oxazole-4-carboxylic acid [1-(3,5-difluoro-4-methanesulfonylamino-phenyl)-ethyl]-amide]: the 50% inhibitory concentration (IC50) worked out at 5000 nM.
On to `CC(C)(C)c1ccc(-c2ccc(C(=O)NCc3cc(F)c(NS(C)(=O)=O)c(F)c3)s2)cc1` [Example 63, 5-(4-tert-Butyl-phenyl)-thiophene-2-carboxylic acid 3,5-difluoro-4-methanesulfonylamino-benzylamide], for which the IC50 is over 10000 nM.
Turning to `C[C@@H](NC(=O)c1coc(-c2ccc(F)c(C(F)(F)F)c2)n1)c1cc(F)c(NS(C)(=O)=O)c(F)c1` [Example 92, 2-(4-Fluoro-3-trifluoromethyl-phenyl)-oxazole-4-carboxylic acid [1-(3,5-difluoro-4-methanesulfonylamino-phenyl)-ethyl]-amide], the half-inhibitory concentration (IC50) is 1700 nM.
For `CCCOc1cccc(-c2nc(C(=O)N[C@H](C)c3cc(F)c(NS(C)(=O)=O)c(F)c3)co2)c1` [Example 71, 2-(3-Propoxy-phenyl)-oxazole-4-carboxylic acid [1-(3,5-difluoro-4-methanesulfonylamino-phenyl)-ethyl]-amide] the value was 1200 nM; for `C[C@@H](NC(=O)c1coc(Oc2cccc(C3CCCC3)c2)n1)c1cc(F)c(NS(C)(=O)=O)c(F)c1` [Example 51, 2-(3-Cyclopentyl-phenoxy)-oxazole-4-carboxylic acid [1-(3,5-difluoro-4-methanesulfonylamino-phenyl)-ethyl]-amide], 1100 nM.
For `C[C@@H](NC(=O)c1coc(Oc2cc(C(F)(F)F)cc(C(F)(F)F)c2)n1)c1cc(F)c(NS(C)(=O)=O)c(F)c1` [Example 36, 2-(3,5-Bis-trifluoromethyl-phenoxy)-oxazole-4-carboxylic acid [1-(3,5-difluoro-4-methanesulfonylamino-phenyl)-ethyl]-amide], the concentration for half-maximal inhibition (IC50) turned out to be 1300 nM.
With `C=C(C)c1cc(Oc2nc(C(=O)N[C@H](C)c3cc(F)c(NS(C)(=O)=O)c(F)c3)co2)cc(C(F)(F)F)c1` [Example 43, 2-(3-Isopropenyl-5-trifluoromethyl-phenoxy)-oxazole-4-carboxylic acid [1-(3,5-difluoro-4-methanesulfonylamino-phenyl)-ethyl]-amide] the figure was 960 nM; with `CC(C)c1ccc(Oc2nc(C(=O)N[C@H](C)c3cc(F)c(NS(C)(=O)=O)c(F)c3)co2)cc1` [Example 5, 2-(4-Isopropyl-phenoxy)-oxazole-4-carboxylic acid [1-(3,5-difluoro-4-methanesulfonylamino-phenyl)-ethyl]-amide], 3600 nM.
On to `C[C@@H](NC(=O)c1coc(-c2cccc(Cl)c2Cl)n1)c1cc(F)c(NS(C)(=O)=O)c(F)c1` [Example 85, 2-(2,3-Dichloro-phenyl)-oxazole-4-carboxylic acid [1-(3,5-difluoro-4-methanesulfonylamino-phenyl)-ethyl]-amide], for which the half-maximal inhibitory concentration (IC50) turned out to be 1200 nM.
With `C[C@@H](NC(=O)c1coc(Oc2cccc3c2OC2(CCCC2)O3)n1)c1cc(F)c(NS(C)(=O)=O)c(F)c1` [Example 49, 2-(2,3-Dihydroxy-phenoxy)-oxazole-4-carboxylic acid [1-(3,5-difluoro-4-methanesulfonylamino-phenyl)-ethyl]-amide, cyclopentanone ketal] the figure was 600 nM.
In the case of `CC1CCCc2c(Oc3nc(C(=O)N[C@H](C)c4cc(F)c(NS(C)(=O)=O)c(F)c4)co3)cccc21` (stereo partly shown) [Example 39, 2-(5-Methyl-5,6,7,8-tetrahydro-naphthalen-1-yloxy)-oxazole-4-carboxylic acid [1-(3,5-difluoro-4-methanesulfonylamino-phenyl)-ethyl]-amide], the concentration for half-maximal inhibition (IC50) was 290 nM.
As to `CC(C)c1ccc(I)c(Oc2nc(C(=O)N[C@H](C)c3cc(F)c(NS(C)(=O)=O)c(F)c3)co2)c1` [Example 52, 2-(2-Iodo-5-isopropyl-phenoxy)-oxazole-4-carboxylic acid [1-(3,5-difluoro-4-methanesulfonylamino-phenyl)-ethyl]-amide], the IC50 came to 1800 nM.
For `CS(=O)(=O)Nc1c(F)cc(CNC(=O)c2cc(-c3ccc(Br)cc3)oc2C(F)(F)F)cc1F` [Example 61, 5-(4-Bromo-phenyl)-2-trifluoromethyl-furan-3-carboxylic acid 3,5-difluoro-4-methanesulfonylamino-benzylamide] the value was 2800 nM.
In the case of `C[C@@H](NC(=O)c1cnc(-c2cc(C(F)(F)F)cc(C(F)(F)F)c2)s1)c1cc(F)c(NS(C)(=O)=O)c(F)c1` [Example 126, 2-(3,5-Bis-trifluoromethyl-phenyl)-thiazole-5-carboxylic acid [1-(3,5-difluoro-4-methanesulfonylamino-phenyl)-ethyl]-amide], the half-inhibitory concentration (IC50) was determined as 490 nM.

As a reminder, the IC50 is the concentration that gives 50% inhibition.

(Values after patent US8691855B2, “Compounds, isomer thereof, or pharmaceutically acceptable salts thereof as vanilloid receptor antagonist and pharmaceutical compositions containing the same” (Amorepacific Corporation, priority 2008, dated 2014).)
